Where two headings read alike, the source gives them in different places.

In one data set the target is T1, TOP1 (Homo sapiens, UniProt P11387).
T1 construct: endogenous in cells; host or cells: Caco-2 (ATCC)
T1 sequence (P11387 1-765): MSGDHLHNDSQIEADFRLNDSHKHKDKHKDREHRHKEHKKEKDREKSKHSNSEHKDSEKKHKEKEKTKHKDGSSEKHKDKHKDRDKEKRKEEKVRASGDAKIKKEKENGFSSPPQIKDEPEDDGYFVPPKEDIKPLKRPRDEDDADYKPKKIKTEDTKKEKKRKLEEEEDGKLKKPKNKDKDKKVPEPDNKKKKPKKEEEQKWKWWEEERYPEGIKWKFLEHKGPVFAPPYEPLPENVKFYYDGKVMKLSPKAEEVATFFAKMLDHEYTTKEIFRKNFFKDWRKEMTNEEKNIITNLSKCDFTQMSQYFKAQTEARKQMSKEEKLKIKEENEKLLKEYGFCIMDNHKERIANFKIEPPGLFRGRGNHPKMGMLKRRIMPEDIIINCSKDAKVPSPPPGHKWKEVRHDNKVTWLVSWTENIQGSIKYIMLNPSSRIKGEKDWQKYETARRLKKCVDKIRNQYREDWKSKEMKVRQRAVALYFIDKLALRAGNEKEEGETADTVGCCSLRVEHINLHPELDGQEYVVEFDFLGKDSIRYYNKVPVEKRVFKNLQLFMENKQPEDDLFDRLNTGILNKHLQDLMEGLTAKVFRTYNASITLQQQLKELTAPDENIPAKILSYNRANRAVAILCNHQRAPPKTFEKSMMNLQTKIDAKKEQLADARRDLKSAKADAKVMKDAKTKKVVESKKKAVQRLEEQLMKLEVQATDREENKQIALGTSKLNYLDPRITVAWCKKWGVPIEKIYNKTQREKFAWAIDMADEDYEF
As to the kind of experiment: DNA-bound TOP1 (Topo I Link Kit) after CPT11 exposure of synchronized cells. The class given is cell-based. To be noted: synchronized Caco-2 cells. On the procedure:
The Caco-2 cell line was obtained from the American Type Culture Collection (Rockville, MD). Cells were grown in Dulbecco's modified Eagle's: Ham F12 medium (1∶1) supplemented with penicillin ([…]), streptomycin ( [drawing 195] ), glutamine (2 mM) (Fischer Scientific, Paris, France) and 10% of Fetal Bovine Serum (FBS) (Dutscher, Paris, France). They were maintained in a humidified atmosphere containing 5% [drawing 196] at [drawing 197] . Experiments were performed four days after confluence. CPT11 was purchased from Pfizer (Paris, France). For transport inhibition studies, non-synchronized cells were pre-incubated with verapamil, a non specific inhibitor of ABC transporters ( [drawing 198] for 24 h; Sigma Aldrich, Paris, France). […] Cell synchronization was performed by a serum shock which consisted in a 2-hour exposure to serum rich medium (DMEM:F12 containing 50% FBS). The beginning of the serum shock defined Circadian Time 0 (CT 0).
The Topo I Link Kit (TopoGen, Port Orange, FL) was used to quantify the amount of TOP1 linked on DNA [56]. […] Fractions of [drawing 208] were removed from the top of the gradient, and an aliquot of each fraction ( [drawing 209] ) was diluted (1/5) and quantified at 260 nm with spectrophotometer (Eppendorf, Paris, France). […] Chemoluminescence signals were detected with Las4000 camera and quantified with ImageJ software. […]

For data set [1] the following is noted: cancer patients, dumbbell delivery scheme over 6h; cited from earlier work.
For a further data set, the system named is CESs. As to conditions: cited from earlier work.

As for `CCc1c2c(nc3ccc(OC(=O)N4CCC(N5CCCCC5)CC4)cc13)-c1cc3c(c(=O)n1C2)COC(=O)[C@]3(O)CC` [CPT11, irinotecan], the figures for the “DNA-bound TOP1 protein amount, % of TOP1 total protein quantity” value on TOP1 (30 min CPT11 exposure at CT14) and on TOP1 (30 min CPT11 exposure at CT28) were 47% and 35.5%, respectively. For the same compound, the “time CPT11 circulating” value in data set [1] is “approximately 12 h”. For the same compound, the Kces with CESs ([CES]=1.42 µM) and in the data set with CESs ([CES]=2.03 µM) was 53 µM each time. Further, in the data set with CESs ([CES]=2.03 µM), the Vces was 0.714 µM/h.
